We go through 19 compounds from the supplement of paper PMC9103864.

For test [1], the system named is BMSC (primary human bone marrow mesenchymal stromal cells). Nature of the test: drug sensitivity score (DSS); higher = more sensitive.
The test system is the same in test [2]. Nature of the test: absolute EC50 for viability; higher = less sensitive.

`CCCS(=O)(=O)Nc1ccc(F)c(C(=O)c2c[nH]c3ncc(-c4ccc(Cl)cc4)cc23)c1F` [Vemurafenib]: the drug sensitivity score in test [1] worked out at 0. For the same compound, in test [2], the “absolute EC50 for viability” value was greater than 10 µM.
For `COc1cc(Br)c(Nc2nc(-c3c(C)nc4ncccn34)cs2)c(Br)c1` [PTC-209] the same measures were 4 and greater than 10 µM.
For `C/C(=C\c1csc(C)n1)[C@@H]1C[C@@H]2O[C@]2(C)CCC[C@H](C)[C@H](O)[C@@H](C)C(=O)C(C)(C)[C@@H](O)CC(=O)N1` [Ixabepilone] the same measures were 0.5 and greater than 1 µM.
`COc1cccc2c1C(=O)c1c(O)c3c(c(O)c1C2=O)C[C@@](O)(C(C)=O)C[C@@H]3O[C@H]1C[C@H](N)[C@H](O)[C@H](C)O1` [Daunorubicin] returned a drug sensitivity score in test [1] of 5.6. Besides, in test [2], the “absolute EC50 for viability” value worked out at 0.356 µM.
In the case of `CC(C)c1c(C(=O)Nc2ccccc2)c(-c2ccccc2)c(-c2ccc(F)cc2)n1CC[C@@H](O)C[C@@H](O)CC(=O)O` [Atorvastatin], in test [1], the drug sensitivity score amounted to 3.1. Also, in test [2], the “absolute EC50 for viability” value amounted to 8.18 µM.
For `Cn1c(Nc2ccc(C(F)(F)F)cc2)nc2cc(Oc3ccnc(-c4ncc(C(F)(F)F)[nH]4)c3)ccc21` [RAF-265] the same measures were 2.5 and greater than 1 µM.
`CCCCCOC(=O)Nc1nc(=O)n([C@@H]2O[C@H](C)[C@@H](O)[C@H]2O)cc1F` [Capecitabine] gave a drug sensitivity score in test [1] of 0. Moreover, in test [2], the “absolute EC50 for viability” value was greater than 10 µM.
The like results for `Cc1ccc(-n2nc(C(C)(C)C)cc2NC(=O)Nc2ccc(OCCN3CCOCC3)c3ccccc23)cc1` [Doramapimod] were, in that order, 1 and greater than 10 µM.
As to `CCc1c2c(nc3ccc(O)cc13)-c1cc3c(c(=O)n1C2)COC(=O)[C@]3(O)CC` [SN-38], the drug sensitivity score in test [1] came to 10. For the same compound, the “absolute EC50 for viability” value in test [2] was 1.52 µM.
The like results for `CCc1c(C(=O)C(N)=O)c2c(OCC(=O)O)cccc2n1Cc1ccccc1` [Varespladib] were, in that order, 0 and greater than 10 µM.
`Cc1ccc(NS(=O)(=O)c2cccc(C#N)c2)c2[nH]cc(C#N)c12` [E7820] had a drug sensitivity score in test [1] of 0. For the same compound, the “absolute EC50 for viability” value in test [2] is greater than 50 µM.
The like results for `COc1ccc(-c2ccc3c(N4CCOC[C@@H]4C)nc(N4CCOC[C@@H]4C)nc3n2)cc1CO` [AZD8055] were, in that order, 17.8 and 0.207 µM.
The compound `C[C@@]1(C(=O)Nc2ccc(F)nc2)CCCN1c1nc(Nc2cc(C3CC3)n[nH]2)c2cccn2n1` yielded a drug sensitivity score in test [1] of 9.3. In test [2], the “absolute EC50 for viability” value came out at 7.74 µM.
On to `CN(C)CCCOc1ccc(-c2ccc3ncc4c(c3c2)n(C2CCOCC2)c(=O)n4C)cn1` [AZD0156], for which, in test [1], the drug sensitivity score was 1.9. For the same compound, the “absolute EC50 for viability” value in test [2] was greater than 1 µM.
`CN(C)CCOc1ccc(/C(=C(/CCCl)c2ccccc2)c2ccccc2)cc1` [Toremifene] yielded a drug sensitivity score in test [1] of 0. Further, the “absolute EC50 for viability” value in test [2] is greater than 10 µM.
Turning to `N#CC(c1ccnc(OCc2ccc(CN3CCOCC3)cc2)n1)c1nc2ccccc2s1` (stereo not drawn) [Bentamapimod], the drug sensitivity score in test [1] amounted to 0. In addition, the “absolute EC50 for viability” value in test [2] is greater than 10 µM.
In test [1], `COc1cc(C(=O)O)ccc1NC(=O)[C@@H]1N[C@@H](CC(C)(C)C)[C@](C#N)(c2ccc(Cl)cc2F)[C@H]1c1cccc(Cl)c1F` [Idasanutlin] gave a drug sensitivity score of 13.3. For the same compound, in test [2], the “absolute EC50 for viability” value came out at 0.576 µM.
For the compound `COC(=O)c1ccc2c(c1)[nH]c1ncnc(NCCCN3CCCCC3)c12` [UM729], the drug sensitivity score in test [1] was determined as 3.3. The “absolute EC50 for viability” value in test [2] was greater than 10 µM.
The like results for `COC(=O)C[C@](O)(CCCC(C)(C)O)C(=O)O[C@@H]1C(OC)=C[C@]23CCCN2CCc2cc4c(cc2[C@H]13)OCO4` [Omacetaxine] were, in that order, 18.6 and 0.219 µM.
